Experimental findings from patent publication US20230212120A1, “SMALL MOLECULE INHIBITORS OF GRK5 AND GRK5 SUBFAMILY MEMBERS AND USES THEREOF” (The Regents of the University of Michigan, priority 2020, published 2023) are described below.

One data set deals with T1, bovine GRK2 (Bos taurus, UniProt P21146).
T1 sequence (P21146 1-689): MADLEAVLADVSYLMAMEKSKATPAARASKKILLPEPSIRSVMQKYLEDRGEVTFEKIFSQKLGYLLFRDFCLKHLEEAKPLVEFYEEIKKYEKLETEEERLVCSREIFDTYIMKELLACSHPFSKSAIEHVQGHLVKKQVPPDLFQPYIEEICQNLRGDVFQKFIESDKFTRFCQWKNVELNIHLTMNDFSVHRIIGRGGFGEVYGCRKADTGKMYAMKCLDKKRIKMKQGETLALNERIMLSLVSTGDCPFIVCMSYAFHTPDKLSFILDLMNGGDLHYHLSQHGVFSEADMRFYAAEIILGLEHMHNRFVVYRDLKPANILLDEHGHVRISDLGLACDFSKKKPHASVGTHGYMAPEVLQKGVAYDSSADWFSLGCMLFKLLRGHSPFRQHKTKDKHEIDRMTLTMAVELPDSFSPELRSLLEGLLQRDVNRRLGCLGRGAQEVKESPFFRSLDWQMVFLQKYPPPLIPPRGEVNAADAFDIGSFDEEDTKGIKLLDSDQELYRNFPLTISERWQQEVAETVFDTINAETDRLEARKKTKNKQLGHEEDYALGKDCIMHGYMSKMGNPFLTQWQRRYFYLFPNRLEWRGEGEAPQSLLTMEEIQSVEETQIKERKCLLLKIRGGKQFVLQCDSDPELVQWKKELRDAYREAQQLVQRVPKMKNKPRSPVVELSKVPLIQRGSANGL
Put plainly: radiometric GRK2 inhibition assay (tubulin phosphorylation).

Data set [1] is described as follows: Thermodynamic solubility (Analiza Inc.). In kind it is physicochemical. The following applies: Water. From the text: Experimental data collected by Analiza Inc. Experimental values represent an average of n=1 experiments.
A short description of data set [2]: Metabolic stability in human liver microsomes. In kind it is in vitro ADME. The following applies: 4-fluoro pendant added to phenyl ring.
The target of a further data set is PKA (Homo sapiens, UniProt P17612). Description: PKA inhibition assay (ADP-Glo). Format: biochemical. The protocol:
The PKA inhibition assays were performed with the ADP-Glo system (Promega Corporation) according to the manufactory's instruction. […] After the initial reaction, ADP-Glo reagent was added to the reaction and allowed to incubate for an additional 40 min. Lastly, the kinase detection reagent was added and allowed to incubate for 30 min, and the luminescence was measured with a FlexStation 3 Multi-mode Microplate Reader (Molecular Devices). All data was analyzed in the same way as GRK inhibition assay. Experiments were performed three times in duplicate.
Standard control compounds are run during each assay to assess consistency across time, experimenters, and subtle changes in assay conditions that are sometimes required to keep some of the compounds soluble and disperse (such as through addition of DDM or 3% DMSO). Paroxetine were used as controls for GRK2 and PKA, and CCG215022 for GRK5.

The next data set concerns the target GRK5 (Cys474) (Homo sapiens, UniProt P34947). Description: Intact protein MS, covalent labelling of GRK5. Format: binding.
Data set [3] has as its target T2, GRK5 (Homo sapiens, UniProt P34947). Description: radiometric GRK5 inhibition assay (tubulin phosphorylation). The conditions noted are these: for IC50: read-out: GRK5 IC50.
Target sequence in this assay (P34947 whole entry): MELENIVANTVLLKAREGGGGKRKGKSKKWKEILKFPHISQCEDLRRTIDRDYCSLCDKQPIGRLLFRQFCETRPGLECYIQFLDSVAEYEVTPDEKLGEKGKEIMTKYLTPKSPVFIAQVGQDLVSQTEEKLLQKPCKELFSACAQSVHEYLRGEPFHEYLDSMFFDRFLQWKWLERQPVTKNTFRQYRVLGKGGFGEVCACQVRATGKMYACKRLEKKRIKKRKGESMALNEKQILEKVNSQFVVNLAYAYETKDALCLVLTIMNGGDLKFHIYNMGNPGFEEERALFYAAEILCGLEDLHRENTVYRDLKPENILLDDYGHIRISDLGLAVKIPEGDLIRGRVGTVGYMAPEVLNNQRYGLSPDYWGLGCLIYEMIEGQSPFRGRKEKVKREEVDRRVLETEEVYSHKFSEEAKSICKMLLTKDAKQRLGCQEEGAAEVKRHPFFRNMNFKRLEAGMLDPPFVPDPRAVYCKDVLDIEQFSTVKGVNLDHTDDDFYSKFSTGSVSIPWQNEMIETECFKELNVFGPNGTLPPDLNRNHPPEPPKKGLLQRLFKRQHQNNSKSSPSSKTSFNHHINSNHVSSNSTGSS
A further data set deals with GRK6 (Homo sapiens, UniProt P43250). Put plainly: Kinome panel, GRK6. The following applies: tested at 1 μM. In kind it is biochemical.
Chain of GRK6 (P43250 whole entry, species assumed): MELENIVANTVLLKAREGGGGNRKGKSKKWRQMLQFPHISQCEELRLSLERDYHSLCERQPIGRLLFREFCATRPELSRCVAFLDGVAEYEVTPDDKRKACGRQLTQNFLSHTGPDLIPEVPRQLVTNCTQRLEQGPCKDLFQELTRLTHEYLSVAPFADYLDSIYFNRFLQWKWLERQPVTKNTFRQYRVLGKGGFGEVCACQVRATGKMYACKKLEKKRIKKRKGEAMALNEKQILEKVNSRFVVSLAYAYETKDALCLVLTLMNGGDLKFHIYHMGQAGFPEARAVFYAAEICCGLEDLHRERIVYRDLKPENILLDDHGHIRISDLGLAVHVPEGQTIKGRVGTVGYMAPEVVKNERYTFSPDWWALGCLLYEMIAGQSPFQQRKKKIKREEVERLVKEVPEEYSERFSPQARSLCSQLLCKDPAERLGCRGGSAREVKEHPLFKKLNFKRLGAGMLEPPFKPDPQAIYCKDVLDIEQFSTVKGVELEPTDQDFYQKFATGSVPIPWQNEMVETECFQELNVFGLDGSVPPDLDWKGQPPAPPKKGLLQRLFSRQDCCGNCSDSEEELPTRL
A further data set has as its system kinome. Description: Kinome-wide selectivity panel. In kind it is biochemical. The following applies: tested at 10 nM, in relation to 100 nM and 1 μM panels.
The next data set relates to FGFR1/2. Description: Kinome panel, FGFR1/2. Format: biochemical. The conditions noted are these: tested at 1 μM.
The target of the next data set is EGFR (Homo sapiens, UniProt P00533). Description: Kinome panel, EGFR. Format: biochemical. The conditions noted are these: tested at 1 μM.
Chain of EGFR (P00533 25-1210, species assumed): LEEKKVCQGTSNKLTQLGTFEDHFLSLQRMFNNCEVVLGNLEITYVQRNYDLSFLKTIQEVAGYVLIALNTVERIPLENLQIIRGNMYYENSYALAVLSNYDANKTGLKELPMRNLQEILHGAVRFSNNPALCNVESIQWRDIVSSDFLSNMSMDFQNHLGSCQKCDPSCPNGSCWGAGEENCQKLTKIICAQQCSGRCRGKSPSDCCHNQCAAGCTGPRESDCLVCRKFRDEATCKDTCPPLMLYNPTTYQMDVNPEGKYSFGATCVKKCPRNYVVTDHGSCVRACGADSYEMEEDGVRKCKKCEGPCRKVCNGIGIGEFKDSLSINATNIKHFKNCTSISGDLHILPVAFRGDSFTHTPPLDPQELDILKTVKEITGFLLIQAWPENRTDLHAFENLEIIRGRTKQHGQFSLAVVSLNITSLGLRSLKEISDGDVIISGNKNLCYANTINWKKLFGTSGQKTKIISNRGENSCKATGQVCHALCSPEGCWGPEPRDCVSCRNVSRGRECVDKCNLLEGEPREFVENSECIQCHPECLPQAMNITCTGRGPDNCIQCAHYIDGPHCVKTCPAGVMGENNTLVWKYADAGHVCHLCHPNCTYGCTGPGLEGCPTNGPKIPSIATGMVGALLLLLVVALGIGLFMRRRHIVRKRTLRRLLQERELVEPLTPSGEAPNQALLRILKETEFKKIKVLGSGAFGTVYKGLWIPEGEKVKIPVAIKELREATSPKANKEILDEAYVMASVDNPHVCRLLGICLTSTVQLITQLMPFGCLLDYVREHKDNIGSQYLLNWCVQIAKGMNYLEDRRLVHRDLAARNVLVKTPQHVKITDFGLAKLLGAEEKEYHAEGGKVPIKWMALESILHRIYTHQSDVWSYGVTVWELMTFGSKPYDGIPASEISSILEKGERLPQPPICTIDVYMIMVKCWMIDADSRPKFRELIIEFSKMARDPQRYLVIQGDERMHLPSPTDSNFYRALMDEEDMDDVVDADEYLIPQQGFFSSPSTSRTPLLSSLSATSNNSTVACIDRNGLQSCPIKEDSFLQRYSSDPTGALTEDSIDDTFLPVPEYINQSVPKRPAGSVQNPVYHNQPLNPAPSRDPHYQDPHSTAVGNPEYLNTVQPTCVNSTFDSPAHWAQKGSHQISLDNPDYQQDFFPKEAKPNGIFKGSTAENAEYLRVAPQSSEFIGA
Data set [4] addresses T2, GRK5. Put plainly: Kinome panel, GRK5. In kind it is biochemical. The following applies: tested at 1 μM.
Target sequence in this assay (P34947 whole entry, species assumed): as the sequence (P34947 whole entry) above
A further data set concerns PDGFR. Put plainly: Kinome panel, PDGFR. Format: biochemical. The conditions noted are these: tested at 1 μM.
For a further data set, the target named is KIT (Homo sapiens, UniProt P10721). Put plainly: Kinome panel, KIT. The following applies: tested at 1 μM. In kind it is biochemical.
Chain of KIT (P10721 26-976, species assumed): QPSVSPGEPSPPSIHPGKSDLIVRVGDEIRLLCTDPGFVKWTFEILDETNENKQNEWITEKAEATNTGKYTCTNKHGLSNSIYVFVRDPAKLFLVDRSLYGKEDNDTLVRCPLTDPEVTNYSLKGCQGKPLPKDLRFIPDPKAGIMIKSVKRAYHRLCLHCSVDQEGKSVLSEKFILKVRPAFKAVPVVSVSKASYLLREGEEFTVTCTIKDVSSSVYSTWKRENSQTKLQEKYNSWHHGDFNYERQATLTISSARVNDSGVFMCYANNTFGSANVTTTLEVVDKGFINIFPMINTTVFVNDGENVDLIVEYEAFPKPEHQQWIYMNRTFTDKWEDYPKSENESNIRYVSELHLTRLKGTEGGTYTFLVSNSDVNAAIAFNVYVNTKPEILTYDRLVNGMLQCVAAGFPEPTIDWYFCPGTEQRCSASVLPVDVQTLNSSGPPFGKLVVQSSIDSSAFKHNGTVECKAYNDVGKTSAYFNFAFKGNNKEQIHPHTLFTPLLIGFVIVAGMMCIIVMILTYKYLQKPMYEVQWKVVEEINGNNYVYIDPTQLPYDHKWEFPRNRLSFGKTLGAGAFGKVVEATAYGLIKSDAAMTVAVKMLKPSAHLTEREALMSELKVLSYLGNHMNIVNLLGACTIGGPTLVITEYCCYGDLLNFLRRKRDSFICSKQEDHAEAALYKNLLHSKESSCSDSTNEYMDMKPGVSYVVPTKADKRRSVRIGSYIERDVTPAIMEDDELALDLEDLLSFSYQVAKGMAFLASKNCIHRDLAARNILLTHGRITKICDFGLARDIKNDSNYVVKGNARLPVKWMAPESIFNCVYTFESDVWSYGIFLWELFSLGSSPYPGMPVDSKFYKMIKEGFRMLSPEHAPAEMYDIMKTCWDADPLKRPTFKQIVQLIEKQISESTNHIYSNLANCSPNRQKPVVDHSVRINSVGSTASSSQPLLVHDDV
Setting [5] is: read-out: GRK2 IC50, Table 2, μM ± SD.
Where [6] appears, read: intact protein MS, 30 min incubation.
[7] abbreviates: intact protein MS, incubation time not stated.
Where [8] appears, read: read-out: GRK2 IC50, Table 1, μM ± SD.

“And” between values parts separate entries of the source, which are not always exact repeats. Identical values can stand only once. “Also recorded” adds a separate entry of the source. Like-named read-outs stand apart in the source and are kept apart here. Some results are limits rather than exact numbers.

Chain of GRK5 (Cys474) (P34947 whole entry): as the sequence (P34947 whole entry) above

As to `Cc1[nH]c(/C=C2\C(=O)Nc3ccc(C(=O)N[C@H](C)c4ccc(F)cc4)cc32)c(C)c1NC(=O)CCl` [Compound 9j, (R,Z)-3-((4-(2-chloroacetamido)-3,5-dimethyl-1H-pyrrol-2-yl)methylene)-N-(1-(4-fluorophenyl)ethyl)-2-oxoindoline-5-carboxamide], the IC50 at bovine GRK2 (setting [5]) was 4.8 ± 3 µM; at PKA (Table 2, μM ± SD), over 250 µM. Also, the “pH After Assay” value in [1] (solubility assay) is 3. Further, in data set [1] (thermodynamic from solid, n=1), the thermodynamic solubility is 90.7 µM and 44.8 µg/mL. Besides, the “increase of stability in HLMs” value in data set [2] amounted to 1.4 fold. Moreover, the “covalent labelling of GRK5” value at GRK5 (Cys474) (setting [6]) is recorded as “form a covalent interaction with Cys474; also recorded: fully labels GRK5”; on GRK5 (Cys474) (setting [7]) it was “able to form a covalent interaction”.

For the molecule `Cc1[nH]c(/C=C2\C(=O)Nc3ccc(C(=O)NC(C)(C)c4ccccc4)cc32)c(C)c1NC(=O)CCl` [Compound 9s, (Z)-3-((4-(2-chloroacetamido)-3,5-dimethyl-1H-pyrrol-2-yl)methylene)-2-oxo-N-(2-phenylpropan-2-yl)indoline-5-carboxamide], on GRK5 [3] (Table 2, ratio of IC50 values), the GRK2/GRK5 amounted to 260. On PKA (Table 2, μM ± SD), this molecule yielded an IC50 of over 250 µM. Besides, the “covalent labelling of GRK5” value at GRK5 (Cys474) (intact MS, overnight / 8 hours) was “completes labelling of GRK5”.

With `Cc1[nH]c(/C=C2\C(=O)Nc3ccc(C(=O)N[C@H](C)c4ccccc4)cc32)c(C)c1NC(=O)CBr` [Compound 9g, (R,Z)-3-((4-(2-bromoacetamido)-3,5-dimethyl-1H-pyrrol-2-yl)methylene)-2-oxo-N-(1-phenylethyl)indoline-5-carboxamide], the IC50 on bovine GRK2 (setting [8]) was 12 ± 20 µM; at GRK5 [3] it was 0.0086 µM; on PKA (Table 1, μM ± SD), over 250 µM. Further, the inhibition at 1 µM turned out to be 97% against GRK6, 17% against EGFR, 93% against GRK5 [4] and 84% on KIT. The kinome-wide selectivity entry in the data set on kinome is “far more selective across the kinome”. Further, the “inhibition of FGFR1/2” value in the data set on FGFR1/2 was 94-98%. At GRK5 [3], the “selectivity for GRK5 over GRK2” value came to 1400 fold. Besides, the GRK2/GRK5 on GRK5 [3] (Table 1, ratio of IC50 values) came out at 1400. Besides, the “fraction of GRK5 labelled” value on GRK5 (Cys474) (setting [6]) amounted to 50%. The “covalent labelling of GRK5” value at GRK5 (Cys474) (setting [7]) was “able to label GRK5 at Cys474; also recorded: able to form a covalent interaction”. The “inhibition of PDGFR” value in the data set with PDGFR was found to be 99%.

For the molecule `C#CCNC(=O)c1c(C)[nH]c(/C=C2\C(=O)Nc3ccc(C(=O)N[C@H](C)c4ccccc4)cc32)c1C` [Compound 5c, (R,Z)-3-((3,5-dimethyl-4-(prop-2-yn-1-ylcarbamoyl)-1H-pyrrol-2-yl)methylene)-2-oxo-N-(1-phenylethyl)indoline-5-carboxamide], the IC50 at bovine GRK2 (setting [8]) is 44 ± 40 µM. Further, the values for the inhibition at 1 µM at GRK6 and at EGFR were 94% and 17%, respectively. Moreover, the “inhibition of FGFR1/2” value with FGFR1/2 is listed as 92-98%. Besides, the “inhibition of PDGFR” value with PDGFR is reported as 99-100%.

Consider `CC#CC(=O)Nc1c(C)[nH]c(/C=C2\C(=O)Nc3ccc(C(=O)N[C@H](C)c4ccccc4)cc32)c1C` [Compound 9a, (R,Z)-3-((4-(but-2-ynamido)-3,5-dimethyl-1H-pyrrol-2-yl)methylene)-2-oxo-N-(1-phenylethyl)indoline-5-carboxamide], for which the IC50 on bovine GRK2 (setting [8]) was found to be 150 ± 30 µM; on GRK5 [3] (Table 1, μM ± SD) it was 2.5 ± 0.8 µM. The “potency / affinity against GRK5 in words” value on GRK5 [3] is given as “low μM potency”. In addition, at GRK5 [3] (Table 1, ratio of IC50 values), the GRK2/GRK5 amounted to 61. The “covalent labelling of GRK5” value on GRK5 (Cys474) (setting [7]) was “did not show any covalent engagement”.

On bovine GRK2, `Cc1[nH]c(/C=C2\C(=O)Nc3ccc(C(=O)N[C@@H](c4ccccc4)C(C)C)cc32)c(C)c1NC(=O)CCl` [Compound 9r, (R,Z)-3-((4-(2-chloroacetamido)-3,5-dimethyl-1H-pyrrol-2-yl)methylene)-N-(2-methyl-1-phenylpropyl)-2-oxoindoline-5-carboxamide] displayed an IC50 of 190 ± 70 µM. Further, the GRK2/GRK5 on GRK5 [3] (Table 2, ratio of IC50 values) came out at 15. Moreover, the “covalent labelling of GRK5” value at GRK5 (Cys474) (intact MS, overnight / 8 hours) is reported as “partial labelling”.

As to `Cc1[nH]c(/C=C2\C(=O)Nc3ccc(C(=O)NCc4ccccc4)cc32)c(C)c1NC(=O)CCl` [Compound 9q, (Z)—N-benzyl-3-((4-(2-chloroacetamido)-3,5-dimethyl-1H-pyrrol-2-yl)methylene)-2-oxoindoline-5-carboxamide], the IC50 at bovine GRK2 (setting [5]) was 13 ± 3 µM; on PKA (Table 2, μM ± SD), over 250 µM. Besides, the “covalent labelling of GRK5” value at GRK5 (Cys474) (intact MS, overnight / 8 hours) was “partial labelling”.

On to `Cc1cccc([C@@H](C)NC(=O)c2ccc3c(c2)/C(=C/c2[nH]c(C)c(NC(=O)CCl)c2C)C(=O)N3)c1` [Compound 9i, (R,Z)-3-((4-(2-chloroacetamido)-3,5-dimethyl-1H-pyrrol-2-yl)methylene)-2-oxo-N-(1-(m-tolyl)ethyl)indoline-5-carboxamide], for which the IC50 on bovine GRK2 (setting [5]) is 11 ± 6 µM; against PKA (Table 2, μM ± SD), over 250 µM. Moreover, the GRK2/GRK5 on GRK5 [3] (Table 2, ratio of IC50 values) was 360.
